Assay results reported in patent US20240158446A1, “CYCLIC COMPOUND HAVING SELECTIVE INHIBITORY ACTION ON KRAS OVER HRAS AND NRAS” (CHUGAI SEIYAKU KABUSHIKI KAISHA, priority 2021, published 2024).
Where a SMILES comes first, the peptide text is derived from it. Bridges are numbered along the chain shown (N, C = ends). [ ]: non-standard residue; d: D form. hPhe(3-Cl-4-CF3) = N[C@@H](CCc1ccc(C(F)(F)F)c(Cl)c1)C(=O)O; NPrPhe(4-CF3) = CCCN[C@@H](Cc1ccc(C(F)(F)F)cc1)C(=O)O; NMeGly(cPent) = CN[C@H](C(=O)O)C1CCCC1; Pro(4,4-F2) = O=C(O)[C@@H]1CC(F)(F)CN1; Hyp = O=C(O)[C@@H]1C[C@@H](O)CN1; NMeL = CN[C@@H](CC(C)C)C(=O)O; Ac5c = NC1(C(=O)O)CCCC1; Aze = O=C(O)[C@@H]1CCN1; Ac4c = NC1(C(=O)O)CCC1; NEtG = CCNCC(=O)O; Sar = CNCC(=O)O

Columns and labels:
[1] = biological target: GDP-bound KRAS wild-type protein (Homo sapiens, UniProt P01116); experiment: Binding to KRAS by surface plasmon resonance (SPR), Single Cycle Kinetics; conditions: SPR Single Cycle Kinetics, GDP-bound KRAS wild-type protein, 1:1 binding model; read-out: KRAS KD
Chain of GDP-bound KRAS wild-type protein (P01116 whole entry): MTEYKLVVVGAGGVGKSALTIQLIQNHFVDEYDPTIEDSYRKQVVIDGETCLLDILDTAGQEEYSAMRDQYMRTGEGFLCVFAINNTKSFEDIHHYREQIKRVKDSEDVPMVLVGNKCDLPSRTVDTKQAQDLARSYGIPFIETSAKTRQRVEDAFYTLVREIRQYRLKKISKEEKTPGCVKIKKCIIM

[2] = biological target: GDP-bound NRAS wild-type protein (Homo sapiens, UniProt P01111); experiment: Binding to NRAS by surface plasmon resonance (SPR), Single Cycle Kinetics; conditions: SPR, GDP-bound NRAS wild-type protein vs GDP-bound KRAS wild-type protein
Chain of GDP-bound NRAS wild-type protein (P01111 whole entry): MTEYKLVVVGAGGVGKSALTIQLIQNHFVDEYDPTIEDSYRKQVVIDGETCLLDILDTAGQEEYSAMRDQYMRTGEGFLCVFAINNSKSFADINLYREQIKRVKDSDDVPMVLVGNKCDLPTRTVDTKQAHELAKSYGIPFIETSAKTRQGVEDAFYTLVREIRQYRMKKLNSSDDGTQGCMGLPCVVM

[3] = biological target: GDP-bound HRAS wild-type protein (Homo sapiens, UniProt P01112); experiment: Binding to HRAS by surface plasmon resonance (SPR), Single Cycle Kinetics; conditions: SPR, GDP-bound HRAS wild-type protein vs GDP-bound KRAS wild-type protein
Chain of GDP-bound HRAS wild-type protein (P01112 whole entry): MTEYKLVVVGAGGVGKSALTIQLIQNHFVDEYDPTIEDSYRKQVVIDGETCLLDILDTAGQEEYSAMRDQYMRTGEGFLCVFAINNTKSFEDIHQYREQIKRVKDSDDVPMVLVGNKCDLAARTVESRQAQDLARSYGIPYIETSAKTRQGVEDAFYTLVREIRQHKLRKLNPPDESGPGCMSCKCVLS

Compound | Kd [1] | NRAS/KRAS (ratio of KD value for NRAS to KD value for KRAS) [2] | HRAS/KRAS (ratio of KD value for HRAS to KD value for KRAS) [3]
CCCN1C(=O)CN(C)C(=O)CN(CC)C(=O)[C@H]([C@@H](C)CC)NC(=O)[C@H](CC(C)C)N(C)C(=O)C[C@@H](C(=O)N(C)C)NC(=O)[C@H](C2CCCC2)N(C)C(=O)C2(CCCC2)NC(=O)[C@@H]2CCCN2C(=O)[C@H](CCc2ccc(C(F)(F)F)c(Cl)c2)NC(=O)CN(C)C(=O)[C@@H]1Cc1ccc(C(F)(F)F)cc1 [PP0367] ([NMeL]I[NEtG][Sar][NPrPhe(4-CF3)][Sar][hPhe(3-Cl-4-CF3)]P[Ac5c][NMeGly(cPent)]D-NMe2; lactam N-11) | 1.3 nM | B (a compound having 3 or more and less than 10 is denoted as B) | B (a compound having 3 or more and less than 10 is denoted as B)
CCCN1C(=O)CN(C)C(=O)CN(CC)C(=O)[C@H]([C@@H](C)CC)NC(=O)[C@H](CC(C)C)N(C)C(=O)C[C@@H](C(=O)N(C)C)NC(=O)[C@H](C2CCCC2)N(C)C(=O)C2(CCC2)NC(=O)[C@@H]2CCCN2C(=O)[C@H](CCc2ccc(C(F)(F)F)c(Cl)c2)NC(=O)CN(C)C(=O)[C@@H]1Cc1ccc(C(F)(F)F)cc1 [PP0368] ([NMeL]I[NEtG][Sar][NPrPhe(4-CF3)][Sar][hPhe(3-Cl-4-CF3)]P[Ac4c][NMeGly(cPent)]D-NMe2; lactam N-11) | 1.7 nM | B (a compound having 3 or more and less than 10 is denoted as B) | B (a compound having 3 or more and less than 10 is denoted as B)
CCCN1C(=O)CN(C)C(=O)CN(CC)C(=O)[C@H]([C@@H](C)CC)NC(=O)[C@H](CC(C)C)N(C)C(=O)C[C@@H](C(=O)N(C)C)NC(=O)[C@H](C2CCCC2)N(C)C(=O)C2(CCCC2)NC(=O)[C@@H]2CC(F)(F)CN2C(=O)[C@H](CCc2ccc(C(F)(F)F)c(Cl)c2)NC(=O)CN(C)C(=O)[C@@H]1Cc1ccc(C(F)(F)F)cc1 [PP0369] ([NMeL]I[NEtG][Sar][NPrPhe(4-CF3)][Sar][hPhe(3-Cl-4-CF3)][Pro(4,4-F2)][Ac5c][NMeGly(cPent)]D-NMe2; lactam N-11) | 1.9 nM | B (a compound having 3 or more and less than 10 is denoted as B) | C (A compound having a KD ratio of 0.1 or more and less than 3 is denoted as C)
CCCN1C(=O)CN(C)C(=O)CN(CC)C(=O)[C@H]([C@@H](C)CC)NC(=O)[C@H](CC(C)C)N(C)C(=O)C[C@@H](C(=O)N(C)C)NC(=O)[C@H](C2CCCC2)N(C)C(=O)C2(CCC2)NC(=O)[C@@H]2CC(F)(F)CN2C(=O)[C@H](CCc2ccc(C(F)(F)F)c(Cl)c2)NC(=O)CN(C)C(=O)[C@@H]1Cc1ccc(C(F)(F)F)cc1 [PP0370] ([NMeL]I[NEtG][Sar][NPrPhe(4-CF3)][Sar][hPhe(3-Cl-4-CF3)][Pro(4,4-F2)][Ac4c][NMeGly(cPent)]D-NMe2; lactam N-11) | 1.5 nM | B (a compound having 3 or more and less than 10 is denoted as B) | C (A compound having a KD ratio of 0.1 or more and less than 3 is denoted as C)
CCCN1C(=O)CN(C)C(=O)CN(CC)C(=O)[C@H]([C@@H](C)CC)NC(=O)[C@H](CC(C)C)N(C)C(=O)C[C@@H](C(=O)N(C)C)NC(=O)[C@H](C2CCCC2)N(C)C(=O)C2(CCCC2)NC(=O)[C@@H]2C[C@@H](OCC)CN2C(=O)[C@H](CCc2ccc(C(F)(F)F)c(Cl)c2)NC(=O)CN(C)C(=O)[C@@H]1Cc1ccc(C(F)(F)F)cc1 [PP0371] ([NMeL]I[NEtG][Sar][NPrPhe(4-CF3)][Sar][hPhe(3-Cl-4-CF3)][Hyp](Et)[Ac5c][NMeGly(cPent)]D-NMe2; lactam N-11) | 0.48 nM | B (a compound having 3 or more and less than 10 is denoted as B) | C (A compound having a KD ratio of 0.1 or more and less than 3 is denoted as C)
CCCN1C(=O)CN(C)C(=O)CN(CC)C(=O)[C@H]([C@@H](C)CC)NC(=O)[C@H](CC(C)C)N(C)C(=O)C[C@@H](C(=O)N(C)C)NC(=O)[C@H](C2CCCC2)N(C)C(=O)C2(CCC2)NC(=O)[C@@H]2C[C@@H](OCC)CN2C(=O)[C@H](CCc2ccc(C(F)(F)F)c(Cl)c2)NC(=O)CN(C)C(=O)[C@@H]1Cc1ccc(C(F)(F)F)cc1 [PP0372] ([NMeL]I[NEtG][Sar][NPrPhe(4-CF3)][Sar][hPhe(3-Cl-4-CF3)][Hyp](Et)[Ac4c][NMeGly(cPent)]D-NMe2; lactam N-11) | 0.79 nM | B (a compound having 3 or more and less than 10 is denoted as B) | B (a compound having 3 or more and less than 10 is denoted as B)
CCCN1C(=O)CN(C)C(=O)[C@@H]2CCN2C(=O)[C@H]([C@@H](C)CC)NC(=O)[C@H](CC(C)C)N(C)C(=O)C[C@@H](C(=O)N(C)C)NC(=O)[C@H](C2CCCC2)N(C)C(=O)C2(CCCC2)NC(=O)[C@@H]2CCCN2C(=O)[C@H](CCc2ccc(C(F)(F)F)c(Cl)c2)NC(=O)CN(C)C(=O)[C@@H]1Cc1ccc(C(F)(F)F)cc1 [PP0373] ([NMeL]I[Aze][Sar][NPrPhe(4-CF3)][Sar][hPhe(3-Cl-4-CF3)]P[Ac5c][NMeGly(cPent)]D-NMe2; lactam N-11) | 1.2 nM | B (a compound having 3 or more and less than 10 is denoted as B) | B (a compound having 3 or more and less than 10 is denoted as B)
CCCN1C(=O)CN(C)C(=O)[C@@H]2CCN2C(=O)[C@H]([C@@H](C)CC)NC(=O)[C@H](CC(C)C)N(C)C(=O)C[C@@H](C(=O)N(C)C)NC(=O)[C@H](C2CCCC2)N(C)C(=O)C2(CCC2)NC(=O)[C@@H]2CCCN2C(=O)[C@H](CCc2ccc(C(F)(F)F)c(Cl)c2)NC(=O)CN(C)C(=O)[C@@H]1Cc1ccc(C(F)(F)F)cc1 [PP0374] ([NMeL]I[Aze][Sar][NPrPhe(4-CF3)][Sar][hPhe(3-Cl-4-CF3)]P[Ac4c][NMeGly(cPent)]D-NMe2; lactam N-11) | 1.8 nM | B (a compound having 3 or more and less than 10 is denoted as B) | B (a compound having 3 or more and less than 10 is denoted as B)
CCCN1C(=O)CN(C)C(=O)[C@@H]2CCN2C(=O)[C@H]([C@@H](C)CC)NC(=O)[C@H](CC(C)C)N(C)C(=O)C[C@@H](C(=O)N(C)C)NC(=O)[C@H](C2CCCC2)N(C)C(=O)C2(CCCC2)NC(=O)[C@@H]2CC(F)(F)CN2C(=O)[C@H](CCc2ccc(C(F)(F)F)c(Cl)c2)NC(=O)CN(C)C(=O)[C@@H]1Cc1ccc(C(F)(F)F)cc1 [PP0375] ([NMeL]I[Aze][Sar][NPrPhe(4-CF3)][Sar][hPhe(3-Cl-4-CF3)][Pro(4,4-F2)][Ac5c][NMeGly(cPent)]D-NMe2; lactam N-11) | 2.3 nM | B (a compound having 3 or more and less than 10 is denoted as B) | B (a compound having 3 or more and less than 10 is denoted as B)
